According to patent publication US10167279B2 (NOVARTIS AG, priority 2014, dated 2019):

Molecular target: C-Raf FL (Homo sapiens (Human), UniProt P04049, Y340E/Y341E)
Assay: In vitro Raf activity determination (Alpha Screen, phospho-MEK), C-Raf FL (full length, Y340E/Y341E)
Assay type: biochemical
Conditions: ATP 1 μM; 60 min pre-incubation; 1 hour reaction; column head does not say FL or TR
Procedure, shortened: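 Read-out is AlphaScreen luminescence using rabbit anti-p-MEK with protein A beads after EDTA stop, with IC50 fitted by non-linear regression. Reaction: Sf9-derived C-Raf plus biotinylated E. coli MEK1 K97R substrate, pH 7.5 Tris/MgCl2/DTT buffer, compound preincubated 60 min at room temperature.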

Sequence of C-Raf FL (P04049 whole entry Y340E/Y341E): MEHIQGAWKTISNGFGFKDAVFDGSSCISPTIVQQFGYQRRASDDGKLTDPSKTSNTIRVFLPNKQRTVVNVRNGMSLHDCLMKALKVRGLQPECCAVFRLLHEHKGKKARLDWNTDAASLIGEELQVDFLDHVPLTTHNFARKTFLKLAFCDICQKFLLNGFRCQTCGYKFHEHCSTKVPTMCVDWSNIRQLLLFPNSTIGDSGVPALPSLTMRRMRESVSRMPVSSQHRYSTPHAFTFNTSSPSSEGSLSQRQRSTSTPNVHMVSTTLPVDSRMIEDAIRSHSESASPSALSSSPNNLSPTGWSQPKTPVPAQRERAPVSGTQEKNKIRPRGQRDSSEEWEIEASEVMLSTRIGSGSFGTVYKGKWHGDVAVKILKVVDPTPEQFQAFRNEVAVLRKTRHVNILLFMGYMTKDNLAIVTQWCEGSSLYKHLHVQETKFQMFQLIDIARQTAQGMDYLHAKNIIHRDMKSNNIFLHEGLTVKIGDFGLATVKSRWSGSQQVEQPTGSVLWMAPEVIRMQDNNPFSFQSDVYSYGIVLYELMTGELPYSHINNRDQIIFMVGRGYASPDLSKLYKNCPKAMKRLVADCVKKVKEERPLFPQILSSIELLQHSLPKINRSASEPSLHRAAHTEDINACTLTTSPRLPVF
Sequence of C-Raf FL (P63104 whole entry partner): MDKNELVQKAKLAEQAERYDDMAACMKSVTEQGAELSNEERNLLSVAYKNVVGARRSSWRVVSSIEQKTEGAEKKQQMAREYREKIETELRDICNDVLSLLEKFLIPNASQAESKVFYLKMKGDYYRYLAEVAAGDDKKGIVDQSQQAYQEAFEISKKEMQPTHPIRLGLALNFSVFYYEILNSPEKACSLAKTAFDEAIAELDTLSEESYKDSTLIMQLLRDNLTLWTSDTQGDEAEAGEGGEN

Row | IC50 | SMILES
1 | 3000 pM | Cc1ccc(NC(=O)c2cccc(C(F)(F)F)c2)cc1-c1cn(C)c(=O)c(C2COC2)n1 [Example 4, N-(4-methyl-3-(4-methyl-6-(oxetan-3-yl)-5-oxo-4,5-dihydropyrazin-2-yl)phenyl)-3-(trifluoromethyl)benzamide]
2 | 830 pM | Cc1ccc(NC(=O)c2ccnc(C(C)(C)C#N)c2)cc1-c1cc(NCCO)nc(C2CCOCC2)c1 [Example 175, 2-(2-cyanopropan-2-yl)-N-(3-(2-((2-hydroxyethyl)amino)-6-(tetrahydro-2H-pyran-4-yl)pyridin-4-yl)-4-methylphenyl) isonicotinamide]
3 | 100 pM | CCOc1nnc(-c2cc(NC(=O)c3cnnc(C(F)(F)F)c3)ccc2C)cc1C1CCOCC1 [Example 237, N-(5-(6-ethoxy-5-(tetrahydro-2H-pyran-4-yl)pyridazin-3-yl)-4-methylphenyl)-6-(trifluoromethyl) pyridazine-4-carboxamide]
4 | 621 pM | CCC(F)(F)c1cc(C(=O)Nc2ccc(C)c(-c3cc(C4CCOCC4)nc(N4CCC(O)CC4)c3)c2)ccn1 [Example 188, 2-(1,1-difluoropropyl)-N-(3-(2-(4-hydroxypiperidin-1-yl)-6-(tetrahydro-2H-pyran-4-yl)pyridin-4-yl)-4-methylphenyl)-2-isonicotinamide]
5 | 30 pM | Cc1ccc(NC(=O)c2cc(C(F)(F)F)cnn2)cc1-c1cc2c(c(C3CCOCC3)c1)NC(=O)C(C)(CO)O2 (stereo not drawn) [Example 195, N-(3-(2-(hydroxymethyl)-2-methyl-3-oxo-5-(tetrahydro-2H-pyran-4-yl)-3,4-dihydro-2H-benzo [b][1,4]oxazin-7-yl)-4-methylphenyl)-5-(trifluoromethyl) pyridazine-3-carboxamide]
6 | 20 pM | Cc1ccc(NC(=O)c2cc(C(F)(F)F)ccn2)cc1-c1cc2c(c(C3CCOCC3)c1)NC(=O)C(C)(CO)O2 (single isomer, unassigned) [Example 193, N-(3-(2-(hydroxymethyl)-2-methyl-3-oxo-5-(tetrahydro-2H-pyran-4-yl)-3,4-dihydro-2H-benzo [b][1,4]oxazin-7-yl)-4-methylphenyl)-4-(trifluoromethyl) picolinamide carboxamide]
7 | 684 pM | Cc1ccc(NC(=O)c2ccnc(C(F)(F)F)c2)cc1-c1cc(C2CCOCC2)nc(N2CCC(O)CC2)c1 [Example 187, N-(3-(2-(4-hydroxypiperidin-1-yl)-6-(tetrahydro-2H-pyran-4-yl)pyridin-4-yl)-4-methylphenyl)-2-(trifluoromethyl) isonicotinamide]
8 | 90 pM | Cc1ccc(NC(=O)c2ccnc(C(C)(C)C#N)c2)cc1-c1cc(OCCO)nc(C2CCOCC2)c1 [Example 270, 2-(2-cyanopropan-2-yl)-N-(3-(2-(2-hydroxyethoxy)-6-(tetrahydro-2H-pyran-4-yl)pyridin-4-yl)-4-methylphenyl) isonicotinamide]
9 | 1000 pM | Cc1ncc(NC(=O)c2cccc(C(F)(F)F)c2)cc1-c1cc(C2(C)COC2)c(=O)[nH]n1 [Example 15, N-(6-methyl-5-(5-(3-methyloxetan-3-yl)-6-oxo-1,6-dihydropyridazin-3-yl)pyridin-3-yl)-3-(trifluoromethyl)benzamide]
10 | 7530 pM | Cc1ncc(NC(=O)c2ccnc(C(C)(C)F)c2)cc1-c1cc(C2(F)COC2)cc(OCCO)n1 [Example 48]
11 | 100 pM | Cc1ccc(NC(=O)c2ccnc(C(F)(F)F)c2)cc1-c1cc(C2CCOCC2)c(NC[C@@H](C)O)nn1 [Example 312, (R)-N-(3-(6-((2-hydroxypropyl)amino)-5-(tetrahydro-2H-pyran-4-yl)pyridazin-3-yl)-4-methylphenyl)-2-(trifluoromethyl) isonicotinamide]
12 | 4000 pM | CCOc1ncc(-c2cc(NC(=O)c3ccnc(C(C)(C)F)c3)cnc2C)cc1C1(O)CCOC1 (stereo not drawn) [Example 296, N-(6′-ethoxy-5′-(3-hydroxytetrahydro-furan-3-yl)-2-methyl-[3,3′-bipyridin]-5-yl)-2-(2-fluoropropan-2-yl)isonicotinamide]
13 | 80 pM | Cc1ccc(NC(=O)c2cnnc(C(F)(F)F)c2)cc1-c1cc(OCCO)nc(C2(CF)CCOCC2)c1 [Example 212, N-(3-(2-(4-(fluoromethyl)tetrahydro-2H-pyran-4-yl)-6-(2-hydroxyethoxy)pyridin-4-yl)-4-methylphenyl)-6-(trifluoromethyl) pyridazine-4-carboxamide]
14 | 200 pM | CCOc1nnc(-c2cc(NC(=O)c3cncc(C(F)(F)F)c3)ccc2C)cc1C1CCOCC1 [Example 231, N-(3-(6-ethoxy-5-(tetrahydro-2H-pyran-4-yl)pyridazin-3-yl)-4-methylphenyl)-5-(trifluoromethyl) nicotinamide]
15 | 300 pM | CCOc1ncc(-c2cc(NC(=O)c3ccnc(C(C)(C)F)c3)cnc2C)cc1C1(CF)COC1 [Example 32, N-(6′-ethoxy-5′-(3-(fluoromethyl)oxetan-3-yl)-2-methyl-[3,3′-bipyridin]-5-yl)-2-(2-fluoropropan-2-yl)isonicotinamide]
16 | 200 pM | Cc1ccc(NC(=O)c2cc3cnccc3nc2C(F)(F)F)cc1-c1cc(OCCO)nc(C2CCOCC2)c1 [Example 255, N-(3-(2-(2-hydroxyethoxy)-6-(terahydro-2H-pyran-4-yl)pyridin-4-yl)-4-methylphenyl)-2-(trifluoromethyl)-1,6-naphthyridine-3-carboxamide]
17 | 1000 pM | CCOc1ncc(-c2cc(NC(=O)c3ccnc(C(C)(C)F)c3)cnc2C)cc1C1(CF)CCOC1 (stereo not drawn) [Example 165, N-(6′-ethoxy-5′-(3-(fluoromethyl)tetrahydrofuran-3-yl)-2-methyl-[3,3′-bipyridin]-5-yl)-2-(2-fluoropropan-2-yl)isonicotinamide]
18 | 1000 pM | CCOc1ncc(-c2cc(NC(=O)c3cccc(C(F)(F)F)c3)cnc2C)cc1C1(F)CCOC1 (stereo not drawn) [Example 297, N-(6′-ethoxy-5′-(3-fluorotetrahydro-furan-3-yl)-2-methyl-[3,3′-bipyridin]-5-yl)-3-(trifluoro-methyl)benzamide]
19 | 600 pM | Cc1nc2cc(C3CCOCC3)cc(-c3cc(NC(=O)c4ccnc(C(C)(C)C#N)c4)ccc3C)c2[nH]1 [Example 223, 2-(2-cyanopropan-2-yl)-N-(4-methyl-3-(2-methyl-5-(tetrahydro-2H-pyran-4-yl)-1H-benzo[d]imidazol-7-yl)phenyl) isonicotinamide]
20 | 1990 pM | Cc1ccc(NC(=O)c2ccnc(C(F)(F)F)c2)cc1-c1cc(NCCO)nc(C2CCOCC2)c1 [Example 172, N-(3-(2-((2-hydroxyethyl)amino)-6-(tetrahydro-2H-pyran-4-yl)pyridin-4-yl)-4-methylphenyl)-2-(trifluoromethyl) isonicotinamide]
21 | 300 pM | COC1(c2cc(-c3cc(NC(=O)c4ccnc(C(F)(F)F)c4)ccc3C)cc(OCCO)n2)COC1 [Example 157, N-(3-(2-(2-hydroxyethoxy)-6-(3-methoxyoxetan-3-yl)pyridin-4-yl)-4-methylphenyl)-2-(trifluoromethyl)isonicotin-amide]
22 | 500 pM | Cc1ccc(NC(=O)c2ccnc(C(F)(F)F)c2)cc1-c1cc2c(c(C3CCOCC3)c1)OC(C)(CO)C(=O)N2 (stereo not drawn) [Example 200, N-(3-(2-(hydroxymethyl)-2-methyl-3-oxo-8-(tetrahydro-2H-pyran-4-yl)-3,4-dihydro-2H-benzo[b][1,4]oxazin-6-yl)-4-methylphenyl)-2-(trifluoromethyl) isonicotinamide]
23 | 200 pM | Cc1ccc(NC(=O)c2ccnc(C(C)(F)F)c2)cc1-c1cc(OCCO)nc(C2(CO)CCOCC2)c1 [Example 216, 2-(1,1-difluoroethyl)-N-(3-(2-(2-hydroxyethoxy)-6-(4-(hydroxymethyl)tetrahydro-2H-pyran-4-yl)pyridin-4-yl)-4-methylphenyl) isonicotinamide]
24 | 70 pM | Cc1ccc(NC(=O)c2ccnc(C#N)c2)cc1-c1cc(OC[C@H](O)CO)nc(C2CCOCC2)c1 [Example 279, (R)-2-cyano-N-(3-(2-(2,3-dihydroxypropoxy)-6-(tetrahydro-2H-pyran-4-yl)pyridin-4-yl)-4-methylphenyl) isonicotinamide]
25 | 40 pM | Cc1ccc(NC(=O)c2ccnc(C(F)(F)F)c2)cc1-c1cc(C2CCOCC2)c(N[C@H](C)CO)nn1 [Example 310, (R)-N-(3-(6-((1-hydroxypropan-2-yl)amino)-5-(tetrahydro-2H-pyran-4-yl)pyridazin-3-yl)-4-methylphenyl)-2-(trifluoromethyl) isonicotinamide]
26 | 30 pM | Cc1ccc(NC(=O)c2cc(Cl)ccn2)cc1-c1cc(OCCO)nc(C2CCOCC2)c1 [Example 261, 4-chloro-N-(3-(2-(2-hydroxyethoxy)-6-(tetrahydro-2H-pyran-4-yl)pyridin-4-yl)-4-methylphenyl) picolinamide]
27 | 100 pM | Cc1ccc(NC(=O)c2cc(C(C)(C)C)nc(O)n2)cc1-c1cc(OCCO)nc(C2CCOCC2)c1 [Example 256, 6-(tert-butyl)-2-hydroxy-N-(3-(2-(2-hydroxyethoxy)-6-(tetrahydro-2H-pyran-4-yl)pyridin-4-yl)-4-methylphenyl)pyrimidine-4-carboxamide]
28 | 2000 pM | Cc1ccc(NC(=O)c2ccnc(C(C)(F)F)c2)cc1-c1cnc(-c2cn(C)nc2C)c(C2(O)COC2)c1 [Example 12, 2-(1,1-difluoroethyl)-N-(3-(6-(1,3-dimethyl-1H-pyrazol-4-yl)-5-(3-hydroxyoxetan-3-yl)pyridin-3-yl)-4-methylphenyl)isonicotinamide]
29 | 400 pM | COC1(c2cc(-c3cc(NC(=O)c4ccnc(C(F)F)c4)ccc3C)cc(OCCO)n2)COC1 [Example 158, 2-(difluoromethyl)-N-(3-(2-(2-hydroxyethoxy)-6-(3-methoxyoxetan-3-yl)pyridin-4-yl)-4-methylphenyl)isonicotin-amide]
30 | 1180 pM | Cc1ncc(NC(=O)c2cccc(C(F)(F)F)c2)cc1-c1cc(C2(O)COC2)cc(C2(F)COC2)c1 [Example 139, N-(5-(3-(3-fluorooxetan-3-yl)-5-(3-hydroxyoxetan-3-yl)phenyl)-6-methylpyridin-3-yl)-3-(trifluoromethyl)benzamide]
